Measured values reported in patent US20100179122A1 (priority 2005, published 2010).
Read-outs that look alike come from different tables or passages of the source.

How the values were obtained:
[1] = target: T1, mutant HIV reverse transcriptase (Y181C mutation) (Human immunodeficiency virus type 1 group M subtype B, UniProt P04585, Y768C); assay: Analogous RT inhibition assay, Y181C mutant; assay type: biochemical
T1 construct: mutations that occur in the reverse transcriptase segment of the pol gene; made in house
Procedure: (§1) 100 μL reaction mixtures were initiated with a combination of primer-template substrate (10 nM final concentration) and dNTPs (0.6 μM dNTPs, 0.75 μM [^3H]-dGTP). The heterodimeric nucleic acid substrate was generated by annealing the DNA primer pD500 (described in Shaw-Reid et al., J. Biol. Chem., 278: 2777-2780; obtained from Integrated DNA Technologies) to t500, a 500 nucleotide RNA template created by in vitro transcription (see Shaw-Reid et al., J. Biol. Chem., 278: 2777-2780). After 1 hour incubation at 37° C., reactions were quenched by 10 μl, streptavidin scintillation proximity assay beads (10 mg/mL, from Amersham Biosciences) in 0.5 M EDTA, pH 8. Microtiter plates were incubated an additional 10 minutes at 37° C. prior to quantification via Topcount (Packard).
(§2) Analogous assays were conducted substituting mutant HIV strains to determine the […] inhibition of compounds of the present invention against mutant HIV reverse transcriptase. In one strain the reverse transcriptase has the Y181C mutation and in the other strain the reverse transcriptase has the K103N mutation. The mutations were generated with the […] site-directed mutagenesis kit (Stratagene). […] The compounds set forth in the other Examples were not tested in the Y181C assay. […] The compounds set forth in the other Examples were not tested in the K103N assay.

[2] = target: T2, mutant HIV reverse transcriptase (K103N mutation) (Human immunodeficiency virus type 1 group M subtype B, UniProt P04585, K690N); assay: Analogous RT inhibition assay, K103N mutant; assay type: biochemical
T2 construct: mutations that occur in the reverse transcriptase segment of the pol gene; made in house
Procedure: as §1, §2

[3] = tested on: acute HIV infection of T-lymphoid cells; assay: Assay for inhibition of HIV replication (spread assay); assay type: cell-based; settings: read-out: IC95, spread assay
Procedure: An assay for the inhibition of acute HIV infection of T-lymphoid cells (alternatively referred to herein as the “spread assay”) was conducted in accordance with Vacca, J. P. et al., Proc. Natl. Acad. Sci. USA 1994, 91: 4096. […] The compounds set forth in the other Examples were not tested in the spread assay.

[4] = Human immunodeficiency virus 1, inhibition of acute HIV infection of T-lymphoid cells
[5] = reverse transcriptase with K103N mutation, tested up to 20 micromolar, read-out: IC50, K103N mutant assay
[6] = reverse transcriptase with Y181C mutation, tested up to 20 micromolar, read-out: IC50, Y181C mutant assay

| Structure (SMILES) | IC50 [1] [nM] | IC50 [2] [nM] | IC95 [3, 4] [nM] | IC50 [2, 5] [nM] | IC50 [1, 6] [nM] | IC95 ([3]; Human immunodeficiency virus 1, T-lymphoid) [nM] |
| --- | --- | --- | --- | --- | --- | --- |
| O=C(Nc1[nH]c2ccc(Cl)cc2c1S(=O)(=O)c1ccccc1)C1CC1 [Example 3, N-[5-Chloro-3-(phenylsulfonyl)-1H-indol-2-yl]cyclopropanecarboxamide] | 1000 to 20000 | < 1000 | < 1000 |  |  |  |
| CC(=O)OCC(=O)Nc1[nH]c2ccc(Cl)cc2c1S(=O)(=O)c1ccccc1 [Example 5, 2-{[5-chloro-3-(phenylsulfonyl)-1H-indol-2-yl]amino}-2-oxoethyl acetate] | < 1000 | < 1000 | < 1000 |  |  |  |
| O=C(CCOc1ccccc1)Nc1[nH]c2ccc(Cl)cc2c1S(=O)(=O)c1ccccc1 [Example 8, N-[5-chloro-3-(phenylsulfonyl)-1H-indol-2-yl]-3-phenoxypropanamide] | > 20000 | > 20000 | < 1000 |  |  |  |
| O=C(Nc1[nH]c2ccc(Cl)cc2c1S(=O)(=O)c1ccccc1)C1Cc2ccccc2O1 (centres unmarked) [Example 10, N-[5-chloro-3-(phenylsulfonyl)-1H-indol-2-yl]-2,3-dihydro-1-benzofuran-2-carboxamide] | < 1000 | < 1000 | < 1000 |  |  |  |
| O=C(Nc1[nH]c2ccc(Cl)cc2c1S(=O)(=O)c1ccccc1)C1COc2ccccc2O1 (centres unmarked) [Example 11, N-[5-chloro-3-(phenylsulfonyl)-1H-indol-2-yl]-2,3-dihydro-1,4-benzodioxine-2-carboxamide] | < 1000 | < 1000 | < 1000 |  |  |  |
| CC(C)C(=O)Nc1[nH]c2ccc(Cl)cc2c1S(=O)(=O)c1ccccc1 [Example 15, N-[5-chloro-3-(phenylsulfonyl)-1H-indol-2-yl]-2-methylpropanamide] | 1000 to 20000 | 1000 to 20000 | < 1000 |  |  |  |
| CCNCC(=O)Nc1[nH]c2ccc(Cl)cc2c1S(=O)(=O)c1ccccc1 [Example 21, N^1-[5-chloro-3-(phenylsulfonyl)-1H-indol-2-yl]-N^2-ethylglycinamide] | < 1000 | < 1000 | < 1000 |  |  |  |
| CCC(C)C(=O)Nc1[nH]c2ccc(Cl)cc2c1S(=O)(=O)c1ccccc1 (centres unmarked) [Example 26, N-[5-chloro-3-(phenylsulfonyl)-1H-indol-2-yl]-2-methylbutanamide] | < 1000 | 1000 to 20000 | < 1000 |  |  |  |
| O=C(Nc1ccc(F)cc1)Nc1[nH]c2ccc(Cl)cc2c1S(=O)(=O)c1ccccc1 [Example 31, N-[5-chloro-3-(phenylsulfonyl)-1H-indol-2-yl]-N′-(4-fluorophenyl)urea] | > 20000 | > 20000 | < 1000 |  |  |  |
| CO[C@@](C(=O)Nc1[nH]c2ccc(Cl)cc2c1S(=O)(=O)c1ccccc1)(c1ccccc1)C(F)(F)F [Example 39, (2R)-N-[5-chloro-3-(phenylsulfonyl)-1H-indol-2-yl]-3,3,3-trifluoro-2-methoxy-2-phenylpropanamide] | < 1000 | < 1000 | < 1000 |  |  |  |
| O=C(NCc1cccc(Cl)c1)Nc1[nH]c2ccc(Br)cc2c1S(=O)(=O)N1CCCC1 [Example 71, N-[5-bromo-3-(pyrrolidin-1-ylsulfonyl)-1H-indol-2-yl]-N′-(3-chlorobenzyl)urea] | 1000 to 20000 |  | < 1000 | < 1000 |  |  |
| O=C(NCc1ccccc1)Nc1[nH]c2ccc(Br)cc2c1S(=O)(=O)N1CCCC1 [Example 72, N-benzyl-N′-[5-bromo-3-(pyrrolidin-1-ylsulfonyl)-1H-indol-2-yl]urea] | < 1000 |  | < 1000 | < 1000 |  |  |
| O=C(Nc1ccccn1)Nc1[nH]c2ccc(Br)cc2c1S(=O)(=O)N1CCCC1 [Example 75, N-[5-bromo-3-(pyrrolidin-1-ylsulfonyl)-1H-indol-2-yl]-N′-pyridin-2-ylurea] |  |  | < 1000 | < 1000 | 1000 to 20000 |  |
| O=C(Nc1[nH]c2ccc(Br)cc2c1S(=O)(=O)N1CCCC1)Nc1c(F)cccc1F [Example 77, N-[5-bromo-3-(pyrrolidin-1-ylsulfonyl)-1H-indol-2-yl]-N′-(2,6-difluorophenyl)urea] |  |  | < 1000 | < 1000 | 1000 to 20000 |  |
| O=C(NCc1ccncc1)Nc1[nH]c2ccc(Br)cc2c1S(=O)(=O)N1CCCC1 [Example 86, N-[5-bromo-3-(pyrrolidin-1-ylsulfonyl)-1H-indol-2-yl]-N′-(pyridin-4-ylmethyl)urea] |  |  | < 1000 | < 1000 | > 20000 |  |
| NC(=O)Nc1[nH]c2ccc(Br)cc2c1S(=O)(=O)N1CCCC1 [Example 89, N-[5-bromo-3-(pyrrolidin-1-ylsulfonyl)-1H-indol-2-yl]urea] |  | < 1000 | < 1000 |  | > 20000 |  |
| O=C(NCCCc1ccccc1)Nc1[nH]c2ccc(Br)cc2c1S(=O)(=O)N1CCCC1 [Example 90, N-[5-bromo-3-(pyrrolidin-1-ylsulfonyl)-1H-indol-2-yl]-N′-(3-phenylpropyl)urea] |  | < 1000 |  |  | > 20000 | 1000 to 10000 |
| CN1CCN(C(=O)Nc2[nH]c3ccc(Br)cc3c2S(=O)(=O)N2CCCC2)CC1 [Example 91, N-[5-bromo-3-(pyrrolidin-1-ylsulfonyl)-1H-indol-2-yl]-4-methylpiperazine-1-carboxamide] |  | 1000 to 20000 |  |  | > 20000 |  |
| CC(C)(C)CCNC(=O)Nc1[nH]c2ccc(Br)cc2c1S(=O)(=O)N1CCCC1 [Example 92, N-[5-bromo-3-(pyrrolidin-1-ylsulfonyl)-1H-indol-2-yl]-N′-(3,3-dimethylbutyl)urea] |  | > 20000 |  |  | > 20000 |  |
| O=C(NCCNc1ccccc1)Nc1[nH]c2ccc(Br)cc2c1S(=O)(=O)N1CCCC1 [Example 93, N-(2-anilinoethyl)-N′-[5-bromo-3-(pyrrolidin-1-ylsulfonyl)-1H-indol-2-yl]urea] |  | 1000 to 20000 |  |  | > 20000 |  |
| CN(C)CCCNC(=O)Nc1[nH]c2ccc(Br)cc2c1S(=O)(=O)N1CCCC1 [Example 94, N-[5-bromo-3-(pyrrolidin-1-ylsulfonyl)-1H-indol-2-yl]-N′-[3-(dimethylamino)propyl]urea] | 1000 to 20000 | < 1000 |  |  |  |  |
